Test [1] addresses hLPAR1 (human lysophosphatidic acid receptor 1) (Homo sapiens, UniProt Q92633). In words: FLIPR assay of intracellular calcium increase induced by activation of hLPAR1 expressed in CHO-K1 cells. It is filed as cell-based. The note with it: CHO-K1 cells expressing hLPAR1, agonist oleoyl-L-α-lysophosphatidic acid 1 μM. On the procedure:
The antagonist property of the compounds disclosed herein was determined using the FLIPR (fluorescence imaging plate reader) method, wherein the compounds are inhibitors for the intracellular calcium increase induced by activation of hLPAR1 (human lysophosphatidic acid receptor 1, accession No. NM_001401.4) expressed in CHO-K1 cells (Chinese hamster ovary cells K1, ATCC).
Cells at 250,000 cells/mL were seeded into a 96-well plate (25,000 cells/well) 18-24 h prior to the FLIPR experiment and then incubated overnight in a cell incubator. […] Each well was added with 75 μL of […] Fluo-4 AM fluorescent dye (Thermo, F14202) and then the cells were subjected to dye-loading incubation at 37° C. for 1.0 h. The 96-well plate was then washed once with buffer, added with a buffer containing a test compound or a vehicle at 50 μL per well and then incubated for 30 min at room temperature. […] An agonist (oleoyl-L-α-lysophosphatidic acid sodium salt (Sigma, L7260)) at a final concentration of 1 μM or a vehicle (ultrapure water) was then added at 50 μL/well, fluorescence values were measured for 2 min at 1-second intervals, and finally the output fluorescence counts were analyzed.

For test [2], the system named is A2058 (human melanoma cells). In words: A2058 cell scratch (migration) assay with LPA. It counts as cell-based. The settings on record: 10 μM LPA, scratch area at 24 h. How it is done:
The activity of the compounds disclosed herein at the cell level in vitro is evaluated by A2058 (human melanoma cells, Beina Bio, BNCC341099) cell scratch assay. The inhibitory activity of the compounds against LPAR1 can be reflected by inhibition of cell scratch healing.
After the cell confluence reached 80%, the cell culture plate was taken out and the original medium was discarded. Serum-free medium was then added, and the cells were starved overnight in an incubator (37° C., 5% CO2). The cell culture plate was then taken out, and cell scratches were made along the diameter of the wells using a 200 μL pipette tip. The cell culture plate was then added with 500 μL of serum-free medium and then shaken gently to wash away the residual cells on the scratched surface, and this was repeated twice. The medium was discarded and 500 μL of 1% FBS medium containing the compound was then added, and the mixture was incubated at 37° C. for 30 min. […] Olympus CKX53 was used to observe the scratches, and MShot image analysis system was used to take pictures and measure the scratch area at 0 h. The plate was incubated in the incubator under the conditions of 37° C. and 5% CO2. 24 h later, the scratches were observed again with Olympus CKX53, and MShot image analysis system was used to take pictures and measure the scratch area at 24 h. Cell migration inhibition rate was calculated according to the following formula: […]

Read-outs that look alike come from different tables or passages of the source. Bounds are passed on as bounds.

Sequence of hLPAR1 (human lysophosphatidic acid receptor 1) (Q92633 whole entry): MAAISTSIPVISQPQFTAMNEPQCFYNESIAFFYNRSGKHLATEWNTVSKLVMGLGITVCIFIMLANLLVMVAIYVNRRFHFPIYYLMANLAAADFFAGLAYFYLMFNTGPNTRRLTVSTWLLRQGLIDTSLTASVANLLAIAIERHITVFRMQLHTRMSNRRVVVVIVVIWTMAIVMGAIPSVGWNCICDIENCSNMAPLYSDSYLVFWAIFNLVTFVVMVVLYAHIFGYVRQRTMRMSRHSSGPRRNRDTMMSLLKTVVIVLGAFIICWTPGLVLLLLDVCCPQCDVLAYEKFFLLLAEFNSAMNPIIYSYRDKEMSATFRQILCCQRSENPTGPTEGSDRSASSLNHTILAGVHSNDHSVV

With `CN(Cc1ccccc1)C(=O)OCc1oncc1-c1ccc(O[C@H]2CCC[C@H](C(=O)O)C2)cc1` (racemic) [Compound 68], the IC50 in test [1] (read-out: LPAR1 IC50) lay within 0.3 to 10 µM.
`CN(C(=O)OCc1c(-c2ccc(O[C@H]3CCC[C@H](C(=O)O)C3)c(N3CC(O)C3)n2)cnn1C)C1CCC1` (racemic) [Compound 107]: the IC50 in test [1] (read-out: LPAR1 IC50) is 0.3 to 10 µM.
Consider `Cc1nc(-c2cnn(C)c2COC(=O)N(C)C2CCOCC2)ccc1O[C@H]1CCC[C@H](C(=O)O)C1` [Compound 95, (1S,3S)-3-((2-methyl-6-(1-methyl-5-(((methyl(tetrahydro-2H-pyran-4-yl)carbamoyl)oxy)methyl)-1H-pyrazol-4-yl)pyridin-3-yl)oxy)cyclohexane-1-carboxylic Acid], for which the IC50 in test [1] (read-out: LPAR1 IC50) lay within 0.3 to 10 µM. The “Cell migration inhibition rate (%)” value in test [2] is “C (C: 0-30%)”.
With `Cc1nc(-c2c(COC(=O)N(C)C3CCCC3)n(C)[nH]c2=O)ccc1O[C@H]1CCC[C@H](C(=O)O)C1` (racemic) [Compound 99], the concentration for half-maximal inhibition (IC50) in test [1] (read-out: LPAR1 IC50) fell in the range of 0.3 to 10 µM.
`Cc1cnn(-c2ccc(O[C@H]3CCC[C@H](C(=O)O)C3)cc2)c1N(C)C(=O)OC1CCCC1` (racemic) [Compound 70]: the IC50 in test [1] (read-out: LPAR1 IC50) lay in the range of 0.3 to 10 µM.
Same read-out and setting: the figure for `CN(C(=O)OCc1cncnc1-c1ccc(O[C@H]2CCC[C@H](C(=O)O)C2)cc1)C1CCCC1` (racemic) [Compound 76] is 0.3 to 10 µM.
With `CN(C(=O)OCc1c(-c2ccc(O[C@H]3CCC[C@H](C(=O)O)C3)c(O)n2)cnn1C)C1CCCC1` (racemic) [Compound 114, (+/−)-(1S,3S)-3-((6-(5-(((cyclopentyl(methyl)carbamoyl)oxy)methyl)-1-methyl-1H-pyrazol-4-yl)-2-hydroxypyridin-3-yl)oxy)cyclohexane-1-carboxylic Acid], the 50% inhibitory concentration (IC50) in test [1] (read-out: LPAR1 IC50) fell in the range of 0.3 to 10 µM. In addition, the “Cell migration inhibition rate (%)” value in test [2] was “C (C: 0-30%)”.
Regarding `CN(C(=O)OCc1oncc1-c1ccc(O[C@H]2CCC[C@H](C(=O)O)C2)cc1)C1CCCC1` (racemic) [Compound 72], in test [1] (read-out: LPAR1 IC50), the 50% inhibitory concentration (IC50) was 0.3 to 10 µM.
As to `CN(C(=O)OCc1c(-c2ccc(O[C@H]3CCC[C@H](C(=O)O)C3)c(OCCO)n2)cnn1C)C1CCC1` (racemic) [Compound 111], the concentration for half-maximal inhibition (IC50) in test [1] (read-out: LPAR1 IC50) was in the range of 0.3 to 10 µM.
As for `Cc1ccn(-c2ccc(O[C@H]3CCC[C@H](C(=O)O)C3)cc2)c1N(C)C(=O)OC1CCCC1` (racemic) [Compound 71], in test [1] (read-out: LPAR1 IC50), the half-inhibitory concentration (IC50) fell in the range of 0.3 to 10 µM.
For `CN(C(=O)OCc1cnccc1-c1ccc(O[C@H]2CCC[C@H](C(=O)O)C2)cc1)C1CCCC1` [Compound 75], the IC50 in test [1] (LPAR1 IC50 (μM)) lay within 0.3 to 10 µM.
With `Cc1nc(-c2cnn(C)c2COC(=O)N(C)C2COC2)ccc1O[C@H]1CCC[C@H](C(=O)O)C1` (racemic) [Compound 64, (+/−)-(1S,3S)-3-((2-methyl-6-(1-methyl-5-(((methyl(oxetan-3-yl)carbamoyl)oxy)methyl)-1H-pyrazol-4-yl)pyridin-3-yl)oxy)cyclohexane-1-carboxylic Acid], the half-inhibitory concentration (IC50) in test [1] (read-out: LPAR1 IC50) is 0.3 to 10 µM. Also, in test [2], the “Cell migration inhibition rate (%)” value is “C (C: 0-30%)”.
As for `Cc1noc(-c2ccc(O[C@H]3CCC[C@H](C(=O)O)C3)cc2)c1OC(=O)N(C)C1CCCC1` (racemic) [Compound 69], the concentration for half-maximal inhibition (IC50) in test [1] (LPAR1 IC50 (μM)) lay in the range of 0.3 to 10 µM.
With `Cc1nc(-c2c(C(F)(F)F)nn(C)c2COC(=O)N(C)C2CCCC2)ccc1O[C@H]1CCC[C@H](C(=O)O)C1` (racemic) [Compound 85], in test [1] (read-out: LPAR1 IC50), the IC50 lay within 0.05 to 0.3 µM.
As for `CN(C(=O)OCc1c(-c2cnc(O[C@H]3CCC[C@H](C(=O)O)C3)c(F)n2)cnn1C)C1CCCC1` (racemic) [Compound 103, (+/−)-(1S,3S)-3-((5-(5-(((cyclopentyl(methyl)carbamoyl)oxy)methyl)-1-methyl-1H-pyrazol-4-yl)-3-fluoropyrazin-2-yl)oxy)cyclohexane-1-carboxylic Acid], the IC50 in test [1] (read-out: LPAR1 IC50) is less than 0.05 µM.
Turning to `COc1nn(C)c(COC(=O)N(C)C2CCCC2)c1-c1ccc(O[C@H]2CCC[C@H](C(=O)O)C2)c(C)n1` (racemic) [Compound 88, (+/−)-(1S,3S)-3-((6-(5-(((cyclopentyl(methyl)carbamoyl)oxy)methyl)-3-methoxy-1-methyl-1H-pyrazol-4-yl)-2-methylpyridin-3-yl)oxy)cyclohexane-1-carboxylic Acid], the IC50 in test [1] (read-out: LPAR1 IC50) was in the range of 0.05 to 0.3 µM. Besides, in test [2], the “Cell migration inhibition rate (%)” value is given as “C (C: 0-30%)”.
With `Cc1nc(-c2cnn(C)c2COC(=O)N(C)C2CCOC2)ccc1O[C@H]1CCC[C@H](C(=O)O)C1` (mixture of isomers) [Compound 93], the IC50 in test [1] (read-out: LPAR1 IC50) fell in the range of 0.3 to 10 µM. Moreover, in test [2], the “Cell migration inhibition rate (%)” value is “B (B: 30-50%)”.
Regarding `CN(C(=O)OCc1cnncc1-c1ccc(O[C@H]2CCC[C@H](C(=O)O)C2)cc1)C1CCCC1` (racemic) [Compound 74], in test [1] (read-out: LPAR1 IC50), the IC50 was in the range of 0.3 to 10 µM.
Still for that read-out and setting: to `Cc1nc(-c2c(N)nn(C)c2COC(=O)N(C)C2CCCC2)ccc1O[C@H]1CCC[C@H](C(=O)O)C1` (racemic) [Compound 87] belongs 0.05 to 0.3 µM.
`Cc1nc(-c2cnn(C)c2COC(=O)N(C)CC2CCOC2)ccc1O[C@H]1CCC[C@H](C(=O)O)C1` (mixture of isomers) [Compound 98, (+/−)-(1S,3S)-3-((2-methyl-6-(1-methyl-5-(((methyl((tetrahydrofuran-3-yl)methyl)carbamoyl)oxy)methyl)-1H-pyrazol-4-yl)pyridin-3-yl)oxy)cyclohexane-1-carboxylic Acid]: the half-inhibitory concentration (IC50) in test [1] (read-out: LPAR1 IC50) fell in the range of 0.3 to 10 µM. Besides, the “Cell migration inhibition rate (%)” value in test [2] is “C (C: 0-30%)”.
On to `Cc1noc(-c2ccc(O[C@H]3CCC[C@H](C(=O)O)C3)cn2)c1COC(=O)N(C)C1CC1` (racemic) [Compound 106], for which, in test [1] (read-out: LPAR1 IC50), the IC50 fell in the range of 0.3 to 10 µM. Moreover, in test [2], the “Cell migration inhibition rate (%)” value is given as “B (B: 30-50%)”.
Regarding `CN(CC1CC1)C(=O)OCc1c(-c2ccc(O[C@H]3CCC[C@H](C(=O)O)C3)c(F)n2)cnn1C` (racemic) [Compound 110, (+/−)-(1S,3S)-3-((6-(5-((((cyclopropylmethyl)(methyl)carbamoyl)oxy)methyl)-1-methyl-1H-pyrazol-4-yl)-2-fluoropyridin-3-yl)oxy)cyclohexane-1-carboxylic Acid], the half-maximal inhibitory concentration (IC50) in test [1] (read-out: LPAR1 IC50) was 0.05 to 0.3 µM. Also, in test [2], the “Cell migration inhibition rate (%)” value was “B (B: 30-50%)”.
For `CN(C(=O)OCc1c(-c2ccc(C3CCC[C@H](C(=O)O)C3)cc2)cnn1C)C1CCCC1` (mixture of isomers) [Compound 73], in test [1] (read-out: LPAR1 IC50), the IC50 is 0.3 to 10 µM.
Turning to `Cc1noc(-c2ccc(O[C@H]3CCC[C@H](C(=O)O)C3)c(F)c2)c1COC(=O)N(C)C1CCCC1` (racemic) [Compound 86], in test [1] (read-out: LPAR1 IC50), the 50% inhibitory concentration (IC50) was less than 0.05 µM.
`CN(CC1CCCC1)C(=O)OCc1c(-c2ccc(O[C@H]3CCC[C@H](C(=O)O)C3)c(F)n2)cnn1C` (racemic) [Compound 77]: the IC50 in test [1] (read-out: LPAR1 IC50) was less than 0.05 µM.
Turning to `Cc1nsc(-c2ccc(O[C@H]3CCC[C@H](C(=O)O)C3)cn2)c1COC(=O)N(C)C1CCCC1` (racemic) [Compound 83], the IC50 in test [1] (read-out: LPAR1 IC50) lay within 0.05 to 0.3 µM.
As to `Cc1snc(-c2ccc(O[C@H]3CCC[C@H](C(=O)O)C3)cn2)c1COC(=O)N(C)C1CCCC1` (racemic) [Compound 81], in test [1] (read-out: LPAR1 IC50), the 50% inhibitory concentration (IC50) was 0.05 to 0.3 µM.
For the compound `Cc1nc(-c2onc(C)c2COC(=O)N(C)C2CCCC2)cnc1O[C@H]1CCC[C@H](C(=O)O)C1` (racemic) [Compound 90], in test [1] (read-out: LPAR1 IC50), the IC50 was less than 0.05 µM.
Take `Cc1nsc(-c2ccc(O[C@H]3CCC[C@H](C(=O)O)C3)c(C(F)(F)F)n2)c1COC(=O)N(C)C1CCCC1` (racemic) [Compound 84]: the IC50 in test [1] (read-out: LPAR1 IC50) is less than 0.05 µM.
With `Cc1snc(-c2ccc(O[C@H]3CCC[C@H](C(=O)O)C3)c(C(F)(F)F)n2)c1COC(=O)N(C)C1CCCC1` [Compound 82], in test [1] (read-out: LPAR1 IC50), the concentration for half-maximal inhibition (IC50) was less than 0.05 µM.
Turning to `Cc1onc(-c2ccc(O[C@H]3CCC[C@H](C(=O)O)C3)cn2)c1COC(=O)N(C)C1CCCC1` (racemic) [Compound 79], in test [1] (read-out: LPAR1 IC50), the IC50 was less than 0.05 µM.
Consider `CN(CC1CCCC1)C(=O)OCc1c(-c2ccc(O[C@H]3CCC[C@H](C(=O)O)C3)c(C#N)n2)cnn1C` [Compound 78], for which the IC50 in test [1] (read-out: LPAR1 IC50) was 0.05 to 0.3 µM.
As to `Cc1nc(-c2cnn(C)c2COC(=O)N2CC3CCC2CO3)ccc1O[C@H]1CCC[C@H](C(=O)O)C1` (mixture of isomers) [Compound 96], the half-inhibitory concentration (IC50) in test [1] (read-out: LPAR1 IC50) was 0.3 to 10 µM.
On the same count and under the same terms, the figure for `Cc1onc(-c2cnc(O[C@H]3CCC[C@H](C(=O)O)C3)c(F)n2)c1COC(=O)N(C)C1CCCC1` (racemic) [Compound 101] is less than 0.05 µM.
As for `Cc1onc(-c2ccc(O[C@H]3CCC[C@H](C(=O)O)C3)c(C(F)(F)F)n2)c1COC(=O)N(C)C1CCCC1` [Compound 80], in test [1] (read-out: LPAR1 IC50), the IC50 is less than 0.05 µM.
